Experiments:
[1] = tested on: Y570 ABC efflux pump CaCDR1B overexpressed; assay: Agarose (disk) diffusion assay, strain Y570; format: cell-based, S. cerevisiae; conditions: 10 nmol/disk, 30 °C, 48 h
Excerpt: (§1) Final compounds were screened as racemic mixtures using agarose diffusion assays to visualize their inhibitory activity against a panel of recombinant S. cerevisiae strains i.e., S. cerevisiae strains expressing control levels of wild-type CYP51 (ScCYP51), overexpressed wild-type ScCYP51, overexpressed azole-resistant ScCYP51 Y140F/H mutations and overexpressed C. albicans efflux pumps MDR1a or CDR1B (Figure and Table S1).
(§2) The susceptibilities of S. cerevisiae and Candida species strains to azole compounds were observed as zones of growth inhibition in agarose diffusion assays. The disk diffusion assays were carried out as described by Keniya et al. Complete supplement mixture (CSM) agarose (0.6% agarose [wt/vol]; 20 mL of synthetic defined medium (SD); pH 6.8–7) was solidified in a rectangular Petri dish which was overlaid with CSM agarose (0.6% [wt/vol]; 5 mL; pH 6.8–7) seeded with yeast cells at an optical density (OD600) of 0.008 (118,000 cells per 1 mL of overlay). Azole compounds (10 nmol/disk) were applied to sterile BBL paper disks (Becton Dickinson Co., Sparks, MD) and placed on solidified overlays. Cell growth was assessed after incubation at 30 °C for 48 h.

Y525 OE CaMDR1a = assay: MIC80 determination, strain Y525; format: cell-based, S. cerevisiae; conditions: for MIC80: Saccharomyces cerevisiae, 48 h, pH 6.8; for MIC: read-out: MIC (nM) C. albicans model Y525
Method: (§3) Cells were seeded at an OD600 nm of 0.005 (1.5 × 10^4 CFU), and the plates were incubated at 30 °C with shaking at 200 rpm for 48 h for S. cerevisiae strains and 24 h for C. albicans . Cell growth was assessed by measuring the OD600 nm using a Synergy 2 multimode plate reader (BioTek Instruments, VT, USA). Each MIC80 was determined using triplicate measurements for pools of 4 clones of each strain in three separate experiments.

Y2301 OE ScCYP51 Y140F = assay: MIC80 determination, strain Y2301; format: cell-based, S. cerevisiae; conditions: Saccharomyces cerevisiae; for MIC80: 48 h, pH 6.8; for MIC: read-out: MIC (nM) S. cerevisiae Y2301
Method: as §3

Y2459 OE CaCYP51 CaCpr = assay: MIC80 determination, strain Y2459; format: cell-based, S. cerevisiae; conditions: for MIC80: Saccharomyces cerevisiae, 48 h, pH 6.8; for MIC: read-out: MIC (nM) C. albicans model Y2459
Method: as §3

[2] = tested on: Y2747 OE AfCYP51B AfCPR AfERG6; assay: MIC80 determination, strain Y2747; format: cell-based, S. cerevisiae; conditions: for MIC: Aspergillus fumigatus, read-out: MIC (nM) A. fumigatus model Y2747; for MIC80: Saccharomyces cerevisiae
Method: as §3

Y433 OE CgCDR1 = assay: MIC80 determination, strain Y433; format: cell-based, S. cerevisiae; conditions: Saccharomyces cerevisiae
Method: as §3

Y2716 OE CpCYP51 Y132F = assay: MIC80 determination, strain Y2716; format: cell-based, S. cerevisiae; conditions: for increase in resistance owing to the CpCYP51 Y132F mutation: MIC80 Y2716 versus Y2721; for MIC80: Saccharomyces cerevisiae
Method: as §3

Y1 = assay: MIC80 determination, C. albicans clinical isolate Y1; format: cell-based; conditions: Candida albicans, pH 7, 24 h
Method: as §3

[3] = tested on: Y2746 OE AfCYP51A AfCPR AfERG6; assay: MIC80 determination, strain Y2746; format: cell-based, S. cerevisiae; conditions: Saccharomyces cerevisiae
Method: as §3

Y611 FHB3 = assay: MIC80 determination, C. albicans clinical isolate Y611 FHB3; format: cell-based; conditions: Candida albicans, 24 h, pH 7
Method: as §3

Y2374 OE CgCYP51 = assay: MIC80 determination, strain Y2374; format: cell-based, S. cerevisiae; conditions: Saccharomyces cerevisiae; for MIC: read-out: MIC (nM) C. glabrate model Y2374
Method: as §3

Y2721 OE CpCYP51 = assay: MIC80 determination, strain Y2721; format: cell-based, S. cerevisiae; conditions: for MIC80: Saccharomyces cerevisiae; for MIC: read-out: MIC (nM) C. parapsilosis model Y2721
Method: as §3

Y570 OE CaCDR1B = assay: MIC80 determination, strain Y570; format: cell-based, S. cerevisiae; conditions: for MIC: Candida albicans, read-out: MIC (nM) C. albicans model Y570; for MIC80: Saccharomyces cerevisiae, 48 h, pH 6.8
Method: as §3

Y2411 Endog. ScCYP51 = assay: MIC80 determination, strain Y2411; format: cell-based, S. cerevisiae; conditions: Saccharomyces cerevisiae; for MIC80: strain Y2411 Endog. ScCYP51, SD pH 6.8, 30 °C, 48 h; for MIC: supplement csv, read-out: MIC (nM) S. cerevisiae Y2411
Method: as §3

2711 CnCYP51 OE CnCPR = assay: MIC80 determination, strain 2711; format: cell-based, S. cerevisiae; conditions: for MIC80: Saccharomyces cerevisiae; for MIC: read-out: MIC (nM) C. neoformans model Y2711
Method: as §3

Y2651 OE CYP51 F5 RaCPR = assay: MIC80 determination, strain Y2651; format: cell-based, S. cerevisiae; conditions: Saccharomyces cerevisiae
Method: as §3

Y71 SC5314 = assay: MIC80 determination, C. albicans clinical isolate Y71 SC5314; format: cell-based; conditions: Candida albicans; for MIC: SC5314, supplement csv; for MIC80: C. albicans clinical isolate Y71 SC5314, pH 7, 24 h
Method: as §3

Y2300 OE ScCYP51 = assay: MIC80 determination, strain Y2300; format: cell-based, S. cerevisiae; conditions: Saccharomyces cerevisiae; for MIC80: 48 h, pH 6.8; for MIC: read-out: MIC (nM) S. cerevisiae Y2300
Method: as §3

[4] = tested on: Y525 MFS efflux pump CaMDR1a overexpressed; assay: Agarose (disk) diffusion assay, strain Y525; format: cell-based, S. cerevisiae; conditions: 10 nmol/disk, 30 °C, 48 h
Excerpt: as §1, §2

Y2513 OE ScCYP51 Y140H = assay: MIC80 determination, strain Y2513; format: cell-based, S. cerevisiae; conditions: Saccharomyces cerevisiae; for MIC80: 48 h, pH 6.8; for MIC: read-out: MIC (nM) S. cerevisiae Y2513
Method: as §3

[5] = tested on: Y2513 ScCYP51 Y140H mutant; assay: Agarose (disk) diffusion assay, strain Y2513; format: cell-based, S. cerevisiae; conditions: 10 nmol/disk, 30 °C, 48 h
Excerpt: as §1, §2

Y2649 OE CYP51 F1 RaCPR = assay: MIC80 determination, strain Y2649; format: cell-based, S. cerevisiae; conditions: for MIC: Rhizopus arrhizus, read-out: MIC (nM) R. arrhizus model Y2649; for MIC80: Saccharomyces cerevisiae
Method: as §3

Y610 FHB1 = assay: MIC80 determination, C. albicans clinical isolate Y610 FHB1; format: cell-based; conditions: Candida albicans; C. albicans clinical isolate Y610 FHB1 (weakly expresses CaCDR1); pH 7, 24 h
Method: as §3

[6] = tested on: Y2301 ScCYP51 Y140F mutant; assay: Agarose (disk) diffusion assay, strain Y2301; format: cell-based, S. cerevisiae; conditions: 10 nmol/disk, 30 °C, 48 h
Excerpt: as §1, §2

Row | Compound | MIC80 (Y525 OE CaMDR1a) | MIC (Y525 OE CaMDR1a) | MIC80 (Y2301 OE ScCYP51 Y140F) | MIC (Y2301 OE ScCYP51 Y140F) | MIC80 (Y2459 OE CaCYP51 CaCpr) | MIC (Y2459 OE CaCYP51 CaCpr) | MIC [2] | MIC80 [2] | MIC80 (Y433 OE CgCDR1) | increase in resistance owing to the CpCYP51 Y132F mutation (Y2716 OE CpCYP51 Y132F) | MIC80 (Y2716 OE CpCYP51 Y132F) | MIC80 (Y1) | MIC80 [3] | MIC80 (Y611 FHB3) | MIC80 (Y2374 OE CgCYP51) | MIC (Y2374 OE CgCYP51) | MIC80 (Y2721 OE CpCYP51) | MIC (Y2721 OE CpCYP51) | MIC (Y570 OE CaCDR1B) | MIC80 (Y570 OE CaCDR1B) | other results
1 | O=C(NCC(O)(Cn1cncn1)c1ccc(F)cc1F)c1ccc2cc(F)ccc2c1 (centres unmarked) [Compound 14, N-(2-(2,4-Difluorophenyl)-2-hydroxy-3-(1H-1,2,4-triazol-1-yl)propyl)-6-fluoro-2-naphthamide] | > 1 µM | > 1000 nM | 0.326 ± 0.048 µM | 326 ± 48 nM | 0.054 ± 0.021 µM | 54 ± 21 nM | 300 nM | 0.3 µM | 9.2 ± 0.707 µM | > 19 fold | 1 µM | 0.01 µM | > 15 µM | 2.4 µM | 0.047 ± 0.006 µM | 47 ± 6 nM | 0.024 µM | 24 nM | 33500 nM | 33.5 µM | zone of growth inhibition (inhibitory activity in words) [1]: no effect; MIC80 (Y2411 Endog. ScCYP51): 0.015 ± 0.003 µM; MIC (Y2411 Endog. ScCYP51): 15 ± 3 nM; MIC80 (2711 CnCYP51 OE CnCPR): 0.005 µM; MIC (2711 CnCYP51 OE CnCPR): 5 nM; MIC80 (Y2651 OE CYP51 F5 RaCPR): 3.5 µM; MIC (Y71 SC5314): 18 nM; MIC80 (Y71 SC5314): 0.018 µM; MIC80 (Y2300 OE ScCYP51): 0.048 ± 0.004 µM; MIC (Y2300 OE ScCYP51): 48 ± 4 nM; zone of growth inhibition (inhibitory activity in words) [4]: reduced effect; MIC80 (Y2513 OE ScCYP51 Y140H): 0.632 ± 0.123 µM; MIC (Y2513 OE ScCYP51 Y140H): 632 ± 123 nM; zone of growth inhibition (inhibitory activity in words) [5]: showed activity; MIC (Y2649 OE CYP51 F1 RaCPR): 83 nM; MIC80 (Y2649 OE CYP51 F1 RaCPR): 0.083 µM; MIC80 (Y610 FHB1): 0.075 µM; zone of growth inhibition (inhibitory activity in words) [6]: showed activity
2 | O=C(NCC(O)(Cn1cncn1)c1ccc(F)cc1F)c1cccc(-c2ccc(C(F)(F)F)cc2)c1 (centres unmarked) [Compound 23, N-(2-(2,4-Difluorophenyl)-2-hydroxy-3-(1H-1,2,4-triazol-1-yl)propyl)-4’-(trifluoromethyl)-[1,1’-biphenyl]-3-carboxamide] | 0.44 µM | 440 nM | 0.411 ± 0.071 µM | 411 ± 71 nM | 0.06 ± 0.011 µM | 60 ± 11 nM | 150 ± 26 nM | 0.15 ± 0.026 µM | 13.1 µM | > 19 fold | 1.91 ± 0.02 µM | 0.12 µM | 3.52 ± 0.209 µM | 4.25 µM | 0.076 ± 0.012 µM | 76 ± 12 nM | 0.055 ± 0.003 µM | 55 ± 3 nM | 8100 nM | 8.1 µM | MIC80 (Y2411 Endog. ScCYP51): 0.037 ± 0.011 µM; MIC (Y2411 Endog. ScCYP51): 37 ± 11 nM; MIC80 (2711 CnCYP51 OE CnCPR): 0.02 µM; MIC (2711 CnCYP51 OE CnCPR): 20 nM; MIC80 (Y2651 OE CYP51 F5 RaCPR): 2.57 ± 0.938 µM; MIC (Y71 SC5314): 100 nM; MIC80 (Y71 SC5314): 0.1 µM; MIC80 (Y2300 OE ScCYP51): 0.069 ± 0.039 µM; MIC (Y2300 OE ScCYP51): 69 ± 39 nM; MIC80 (Y2513 OE ScCYP51 Y140H): 0.805 ± 0.121 µM; MIC (Y2513 OE ScCYP51 Y140H): 805 ± 121 nM; zone of growth inhibition (inhibitory activity in words) [5]: significantly greater resistance; MIC (Y2649 OE CYP51 F1 RaCPR): 32 ± 19 nM; MIC80 (Y2649 OE CYP51 F1 RaCPR): 0.032 ± 0.019 µM; MIC80 (Y610 FHB1): 0.4 ± 0.113 µM; zone of growth inhibition (inhibitory activity in words) [6]: significantly greater resistance
3 | O=C(NCC(O)(Cn1cncn1)c1ccc(F)cc1F)c1cccc(-c2ccc(OC(F)(F)F)cc2)c1 (centres unmarked) [Compound 24, N-(2-(2,4-Difluorophenyl)-2-hydroxy-3-(1H-1,2,4-triazol-1-yl)propyl)-4’-(trifluoromethoxy)-[1,1’-biphenyl]-3-carboxamide] | 0.43 µM | 430 nM | 0.419 ± 0.083 µM | 419 ± 83 nM | 0.116 ± 0.061 µM | 116 ± 61 nM | 50 nM | 0.05 µM | 11.8 µM | > 19 fold | 1.75 µM | 0.12 µM | 2.7 µM | 3.4 µM | 0.168 µM | 168 nM | 0.094 µM | 94 nM | 17000 nM | 17 µM | MIC80 (Y2411 Endog. ScCYP51): 0.03 µM; MIC (Y2411 Endog. ScCYP51): 30 nM; MIC80 (2711 CnCYP51 OE CnCPR): 0.002 µM; MIC (2711 CnCYP51 OE CnCPR): 2 nM; MIC80 (Y2651 OE CYP51 F5 RaCPR): 1.4 µM; MIC (Y71 SC5314): 85 nM; MIC80 (Y71 SC5314): 0.085 µM; MIC80 (Y2300 OE ScCYP51): 0.163 ± 0.061 µM; MIC (Y2300 OE ScCYP51): 163 ± 61 nM; MIC80 (Y2513 OE ScCYP51 Y140H): 0.719 ± 0.001 µM; MIC (Y2513 OE ScCYP51 Y140H): 719 ± 1 nM; zone of growth inhibition (inhibitory activity in words) [5]: significantly greater resistance; MIC (Y2649 OE CYP51 F1 RaCPR): 16 nM; MIC80 (Y2649 OE CYP51 F1 RaCPR): 0.016 µM; MIC80 (Y610 FHB1): 0.37 ± 0.042 µM; zone of growth inhibition (inhibitory activity in words) [6]: significantly greater resistance

Reference: publication PMC12169614, “Exploring Long Arm Amide-Linked Side Chains in the Design of Antifungal Azole Inhibitors of Sterol 14α-Demethylase (CYP51)” (Journal of Medicinal Chemistry, 2025)
